A short description of data set [1]: In vivo pharmacokinetics in male C57BL/6 mice (IV and PO). The conditions noted are these: mouse; for AUC(0-inf) / C0 / clearance / AUC(0-t) / half-life / MRT inf / Vd / Cmax / Tmax / bioavailability: male, C57BL/6, plasma; for AUC(0-t): read-out: AUC0-tlast; for half-life: read-out: Apparent t1/2 (converted); for MRT inf: read-out: MRT0-inf; for Vd: read-out: Vss; for bioavailability: read-out: F (bioavailability). The protocol: Example 26: In Vivo Assessment of the Pharmacokinetics in Mice and Rats […]
Male C57BL/6 mice (25-30 g) from Charles River Labs were acclimatized for a minimum of 5 days prior to dosing. Body weights will be recorded on the day of dosing.
Animals dosed p.o. were deprived of food overnight and fed ˜2 h following dosing.
Formulations were administered intravenously (i.v.) via the tail vein or orally (p.o.) by gavage with disposable feeding needles.
Serial blood samples were collected via tail snip. Terminal blood samples will be collected under isoflurane anesthesia by cardiac puncture.
All blood samples were transferred into K2EDTA tubes on wet ice and centrifuged within 5 min (3200×g for 5 min at 4° C.) to obtain plasma. Plasma will be stored at −80° C. until analysis.
AB Sciex QTRAP 4000 or 6500 MS/MS system equipped with an LC system with a binary pump, a solvent degasser, a thermostatted column compartment and a multiplate autosampler. i. Analysis software: Phoenix® WinNonlin® 8.2 (Pharsight, Certara, Mountainview, Calif.) ii. Analysis methods: non-compartmental analysis, linear up/log down trapezoidal rule iii. PK parameters: C0, t1/2, AUC0-tlast. AUC0-∞, CL, Vss, MRT, tmax(po), Cmax(po), F, as appropriate • C0 concentration extrapolated to time zero following an i.v. dose • tmax time at which maximum concentration is observed • Cmax maximum observed concentration • Apparent t1/2 apparent terminal half-life • AUC0-tlast area under the concentration vs time curve from time 0 to the time of the last measurable concentration • AUC0-inf area under the concentration vs time curve from time 0 to infinity • CL systemic clearance • MRT0-inf mean residence time from time zero to infinity • Vss steady-state volume of distribution • F bioavailability=(Dose^iv*AUC^po)/(Dose^po*AUC^iv)*100

A further data set deals with human 5-HT2A receptor (Homo sapiens (Human), UniProt P28223). Briefly: Radioligand ([3H]-ketanserin) binding assay on human 5-HT2A receptor. As for the experimental part:
i. Prepare the assay buffer following the table below;
ii. Preparation of 8 doses of reference and exemplary test compounds starting from 10 mM stock solution as requested by 5-fold serial dilutions with 100%;
iii. […] a. Add 50 μl/well of 0.5% (v/v) PEI to UniFilter-96 GF/B plates. Seal the plates and incubate at 4° C. for 3 hrs; b. After incubation, wash the plates 3 times with ice-cold wash buffer (50 mM Tris, pH7.4);
iv. Preparation of assay plates: a. Dilute cell membrane with assay buffer and add 330 μl/well to 96 round deep well plates to reach a concentration of 20 μg/well; b. Prepare 8 concentrations of reference or exemplary test compounds and add 110 μl/well to 96 round deep well plates; c. Dilute [3H]-ketanserin with assay buffer to 5 nM (5× final concentration) and add 110 μl/well to 96 round deep well plates.
v. Centrifuge the plate at 1000 rpm for 30 secs and then agitate at 600 rpm, R.T. for 5 min.
vi. Seal the plates and incubate the plate at 27° C. for 90 min.
vii. Stop the incubation by vacuum filtration onto GF/B filter plates followed by 4 times washing with ice-cold wash buffer (50 mM Tris, pH7.4).
ix. Seal the filter plates and add 40 μl/well of scintillation cocktail.
x. Read the plate by using a Microbeta2 microplate counter.
For reference and exemplary test compounds, the results are expressed as % Inhibition, using the normalization equation: N=100−100×(U−C2)/(C1−C2), where U is the unknown value, C1 is the average of high controls, and C2 is the average of low controls. The IC50 is determined by fitting percentage of inhibition as a function of compound concentrations with Hill equation using XLfit.

Data set [2] is described as follows: Rat liver microsomes stability with NADPH. The settings on record: for half-life at 2 μM / microsomal CLint at 2 μM: male, rat, microsomes; for Remaining Percentage (%) after 60 min, Rat: rat liver microsomes, with NADPH, 2 μM. As for the experimental part:
The objective of this study was to estimate in vitro metabolic stability of exemplary compounds in pooled human, male rat and male mouse liver microsomes. The concentrations of exemplary compounds in reaction systems were evaluated by LC-MS/MS for estimating the stability in pooled human, male rat and male mouse liver microsomes. The in vitro intrinsic clearances of test compounds were determined as well.
A master solution in the “Incubation Plate” containing phosphate buffer, ultra-pure H2O, MgCl2 solution and liver microsomes was made according to Table 3. The mixture was pre-warmed at 37° C. water bath for 5 minutes.
40 μL of 10 mM NADPH solution was added to each well. The final concentration of NADPH was 1 mM. The negative control samples were prepared by replacing NADPH with 40 μL of ultra-pure H2O. Samples were prepared in duplicate. Negative controls were prepared in singlet.
The reaction was started with the addition of 4 μL of 200 μM exemplary test compounds or control compounds to each master solution to get the final concentration of 2 μM. This study was performed in duplicate.
Aliquots of 50 μL were taken from the reaction solution at 0, 15, 30, 45 and 60 minutes. The reaction solutions were stopped by the addition of 4 volumes of cold methanol with IS (100 nM alprazolam, 200 nM imipramine, 200 nM labetalol and 2 μM ketoprofen). Samples were centrifuged at 3,220 g for 40 minutes. Aliquot of 90 μL of the supernatant was mixed with 90 μL of ultra-pure H2O and then was used for LC-MS/MS analysis.
LC/MS analysis was performed for all samples from this study using a Shimadzu liquid chromatograph separation system equipped with degasser DGU-20A5R; solvent delivery unit LC-30AD; system controller SIL-30AC; column oven CTO-30A; CTC Analytics HTC PAL System. Mass spectrometric analysis was performed using an Triple Quad™ 5500 instrument.
All calculations were carried out using Microsoft Excel. Peak areas were determined from extracted ion chromatograms. The slope value, k, was determined by linear regression of the natural logarithm of the remaining percentage of the parent drug vs. incubation time curve.
Conversion of the in vitro t1/2 (min) into the in vitro intrinsic clearance (in vitro CLint, in μL/min/mg proteins) was done using the following equation (mean of duplicate determinations): […]
For orientation: Microsomes from liver hold many membrane-bound enzymes, among them those of drug oxidation.

Like-named read-outs stand apart in the source and are kept apart here. Bounds are passed on as bounds.

What is called AUC(0-inf) is total exposure, with the tail of the curve extrapolated. Higher therefore signals more exposure. A word on the Cmax: it is the maximum level reached in the sampled fluid or tissue. By Tmax is commonly meant the time at which the peak concentration occurs. What is called bioavailability is dose-corrected exposure relative to a reference, in per cent. In general, IC50 refers to the concentration at which inhibition is half-maximal. A lower IC50 goes with inhibition by little substance. As usually defined, the microsomal CLint is a measure of how fast metabolising enzymes remove a compound, apart from limits set by blood flow. The low end stands for greater metabolic stability, the high end for faster metabolism. For the molecule `[2H]C([2H])([2H])N1CCC[C@@H]1Cc1c[nH]c2cccc(O)c12` [Compound I-2, (R)-3-((1-(methyl-d3)pyrrolidin-2-yl)methyl)-1H-indol-4-ol], in data set [1] (IV, 1 mg/kg), the AUC(0-inf) was 463 ± 423 ng·h/mL, the C0 was 3590 ± 4100 ng/mL, the clearance is 64.5 mL/min/kg and the AUC(0-t) came to 461 ± 421 ng·h/mL. In data set [1] (IV, 1 mg/kg), the half-life was 3.09 ± 2.79 h, the MRT inf was 0.733 ± 0.194 h, the Vd is 3.09 ± 3.22 L/kg and the AUC0-inf/Dose was found to be 463 ± 423 kg·ng·h/mL/mg. Further, in data set [1] (IV, 5 mg/kg), the total exposure AUC(0-inf) was determined as 1410 ± 862 ng·h/mL, the C0 came to 4780 ± 3570 ng/mL, the clearance was 72.8 mL/min/kg and the AUC(0-t) is 1370 ± 869 ng·h/mL. For the same molecule, in data set [1] (IV, 5 mg/kg), the half-life was 12.7 ± 4.24 h, the MRT inf amounted to 3.1 ± 1.43 h, the Vd was 15.3 ± 10.5 L/kg and the AUC0-inf/Dose worked out at 282 ± 172 kg·ng·h/mL/mg. In addition, in data set [1] (PO, 10 mg/kg), the AUC(0-inf) was 314 ng·h/mL, the Cmax stood at 117 ± 23.7 ng/mL, the Tmax came to 0.25 h and the AUC(0-t) was 271 ± 30.9 ng·h/mL. In data set [1] (PO, 10 mg/kg), the half-life is 9.31 h, the bioavailability came to 6.27 ± 0.906%, the MRT inf stood at 7.88 h and the AUC0-inf/Dose is recorded as 31.4 (n = 2) h*kg*ng/mL/mg. In data set [1] (PO, 10 mg/kg), this molecule registered a Cmax/Dose of 11.7 ± 2.37 kg·ng/mL/mg. On human 5-HT2A receptor, this molecule yielded an IC50 below 500 nM. In data set [2], the half-life at 2 μM is 0.627 h; the intrinsic metabolic clearance (microsomal CLint) at 2 μM worked out at 36.8 µL/min/mg; the “Remaining Percentage (%) after 60 min, Rat” value (“Remaining Percentage (%)” for short) was 33.13%.

In the case of `[2H]C([2H])(c1c[nH]c2cccc(OC)c12)[C@H]1CCCN1C([2H])([2H])[2H]` [Compound I-39, (R)-4-methoxy-3-((1-(methyl-d3)pyrrolidin-2-yl)methyl-d2)-1H-indole], in data set [1] (IV, 1 mg/kg), the AUC(0-inf) amounted to 1960 ± 696 ng·h/mL, the C0 amounted to 1290 ± 782 ng/mL, the clearance was 9.25 mL/min/kg and the AUC(0-t) was 1960 ± 696 ng·h/mL. Moreover, in data set [1] (IV, 1 mg/kg), the half-life is 2.51 ± 0.366 h, the MRT inf turned out to be 2.78 ± 0.388 h, the Vd is 1.5 ± 0.397 L/kg and the AUC0-inf/Dose is 1960 ± 696 kg·ng·h/mL/mg. Also, in data set [1] (PO, 10 mg/kg), the AUC(0-inf) came to 214 ± 49.6 ng·h/mL, the highest level (Cmax) was 134 ± 14.7 ng/mL, the Tmax stood at 0.5 h and the AUC(0-t) worked out at 210 ± 46.6 ng·h/mL. Besides, in data set [1] (PO, 10 mg/kg), the half-life was 3.91 ± 1.81 h, the bioavailability worked out at 1.09 ± 0.253%, the MRT inf is 2.3 ± 0.259 h and the AUC0-inf/Dose worked out at 21.4 ± 4.96 kg·ng·h/mL/mg. In data set [1] (PO, 10 mg/kg), this molecule had a Cmax/Dose of 13.4 ± 1.47 kg·ng/mL/mg. On human 5-HT2A receptor, the IC50 was in the range of 500 to 5000 nM. In addition, in data set [2], the half-life at 2 μM is 0.204 h; the microsomal CLint at 2 μM was 113 µL/min/mg; the “Remaining Percentage (%)” value came out at 3.34%.

Take `[2H]C([2H])(c1c[nH]c2cccc(O)c12)[C@H]1CCCN1C([2H])([2H])[2H]` [Compound I-44, (R)-3-((1-(methyl-d3)pyrrolidin-2-yl)methyl-d2)-1H-indol-4-ol]: in data set [1] (IV, 1 mg/kg), the total exposure AUC(0-inf) was found to be 598 ± 434 ng·h/mL, the C0 amounted to 2570 ± 2560 ng/mL, the clearance is 42.5 mL/min/kg and the AUC(0-t) came to 595 ± 433 ng·h/mL. In data set [1] (IV, 1 mg/kg), the half-life was 1.18 ± 0.205 h, the MRT inf amounted to 0.754 ± 0.12 h, the Vd came to 1.98 ± 1.58 L/kg and the AUC0-inf/Dose amounted to 598 ± 434 kg·ng·h/mL/mg. Further, in data set [1] (PO, 10 mg/kg), the AUC(0-inf) amounted to 537 ± 274 ng·h/mL, the Cmax worked out at 158 ± 55.4 ng/mL, the time to peak (Tmax) worked out at 0.75 ± 0.433 h and the AUC(0-t) is 477 ± 260 ng·h/mL. Moreover, in data set [1] (PO, 10 mg/kg), the half-life is 2.71 ± 0.511 h, the bioavailability turned out to be 8.98 ± 4.58%, the MRT inf was determined as 3.5 ± 0.965 h and the AUC0-inf/Dose is 53.7 ± 27.4 kg·ng·h/mL/mg. For the same molecule, the Cmax/Dose in data set [1] (PO, 10 mg/kg) was found to be 15.8 ± 5.54 kg·ng/mL/mg. The IC50 at human 5-HT2A receptor is below 500 nM. In data set [2], the half-life at 2 μM was 0.608 h; the microsomal CLint at 2 μM came to 38 µL/min/mg; the “Remaining Percentage (%)” value was 32.00%.

The record behind these values is patent US11453689B2, “3-pyrrolidine-indole derivatives as serotonergic psychedelic agents for the treatment of CNS disorders” (Mindset Pharma Inc., priority 2020, dated 2022).
